Measurements reported in patent US20080206181A1, “Hair treatment compositions containing sophora alkaloids” (Conopco Inc, d/b/a UNILEVER, priority 2007, published 2008).
Marks after values point to notes of the source that are not given here.

How the values were obtained:
[1] = Differential scanning calorimetry (DSC) of bleach-damaged hair fibres; conditions: for Average Denaturation Temperature Td / Sub From damaged (Td increase over damaged hair): bleached hair immersed in 1% aqueous solution at pH 5.5 for 1 hour; for Repair of damage caused by bleaching hair fibre (in words): summary of Table 2
Description: To prepare damaged hair fibre, European hair fibres were bleached with L' Oreal Platifiz precision powder and Oxydant crème (1:1.5) for 30 min, rinsed completely with running tap water and naturally dried overnight before the next application. These hair fibres were immersed in a 1% aqueous solution of test material (matrine or oxymatrine respectively) and water (as a control) at pH 5.5 (adjusted with HCl and NaOH) for 1 hour respectively, rinsed with distilled water for 30 sec and naturally dried overnight and then they were cut into ˜2 mm lengths with scissors.
For the DSC investigation a Mettler Toledo DSC823e analyser was used. About 6 mg of sample was weighed into a pressure resistant (20 bar), stainless steel, large volume pan (120 μl capacity). 50 μl of water was added and the pan was sealed. Samples were then mixed using a rotary mixer and left overnight to allow the water to equilibrate throughout the sample. Samples were run through a temperature programme of […] at a rate of 10° C./min in 30 ml/min nitrogen atmosphere. The helix transition temperature was collected and analyzed with one-way ANOVA. Each sample was carried out three times.

[2] = Protein leaching from hair fibres (BCA protein assay kit); conditions: for Protein leaching from hair fibres, Average: 1% test material + 2% SDS, pH about 6.0, 10 mg hair fibres, 37° C., 24 h; for Effect on protein leaching induced by SDS (in words): summary of Table 1
Description: Protein leaching assays were conducted in order to find out the protective effect of test materials on protein leaching from hair.
Chinese hair fibres from the same head were washed with shampoo and air dried. Then they were immersed in ether for 2 min to remove lipid components and rinsed with running water and air. The hair fibres were cut into ˜2 mm length with scissors.
A 200 μL solution consisting of 1% test material (matrine or oxymatrine respectively) and 2% sodium dodecyl sulphate (SDS), where pH was adjusted to about 6.0 with citric acid, was incubated with 10 mg hair fibres at 37° C. for 24 h.
Protein leaching from the treated hair fibres was determined with a BCA protein assay kit.
The data were collected and analysed with One-Way ANOVA by using SPSS software. LSD was used when variances were equal, and Tamhane's T2 was used when variances were not equal.

Compound | Average Denaturation Temperature Td ([1]; 1st run) | Sub From damaged (Td increase over damaged hair) ([1]; 1st run) | Average Denaturation Temperature Td ([1]; 1st run, listed as oxymatrine) | Average Denaturation Temperature Td ([1]; 2nd run) | Sub From damaged (Td increase over damaged hair) ([1]; 2nd run) | Repair of damage caused by bleaching hair fibre (in words) [1] | Protein leaching from hair fibres, Average ([2]; 1st Run) | Protein leaching from hair fibres, Average ([2]; 2nd Run) | Effect on protein leaching induced by SDS (in words) [2] | Average Denaturation Temperature Td ([1]; 1st run, listed as matrine)
O=C1CCC[C@@H]2[C@H]3CCC[N+]4([O-])CCC[C@@H](CN12)[C@@H]34 (single isomer, unassigned; (+)) [Oxymatrine, (+)-oxymatrine] | 152.24** ° C. | 9.68 °C | 152.24 °C | 150.67** ° C. | 7.49 | fully repair the damage | 0.854** μg/mg | 1.035** μg/mg | reduce protein leaching | –
O=C(O)CC(O)(CC(=O)O)C(=O)O [Citric acid] | – | – | – | – | – | – | – | 1.121 µg/mg | – | –
O=C1CCC[C@@H]2[C@H]3CCCN4CCC[C@@H](CN12)[C@@H]34 [Matrine, (+)-matrine] | 148.00** ° C. | 5.43 °C | – | 148.07** ° C. | 4.89 | fully repair the damage | 0.792** μg/mg | 1.105* μg/mg | reduce protein leaching | 148 °C
